Test results as given in patent publication US11591323B2, “Muscarinic agonists as non-steroidal and non-opioid analgesics and methods of use thereof” (Barry University, priority 2019, dated 2023).

Target: T1, M2 muscarinic receptor (Homo sapiens, UniProt P08172)
T1 sequence (P08172 1-466): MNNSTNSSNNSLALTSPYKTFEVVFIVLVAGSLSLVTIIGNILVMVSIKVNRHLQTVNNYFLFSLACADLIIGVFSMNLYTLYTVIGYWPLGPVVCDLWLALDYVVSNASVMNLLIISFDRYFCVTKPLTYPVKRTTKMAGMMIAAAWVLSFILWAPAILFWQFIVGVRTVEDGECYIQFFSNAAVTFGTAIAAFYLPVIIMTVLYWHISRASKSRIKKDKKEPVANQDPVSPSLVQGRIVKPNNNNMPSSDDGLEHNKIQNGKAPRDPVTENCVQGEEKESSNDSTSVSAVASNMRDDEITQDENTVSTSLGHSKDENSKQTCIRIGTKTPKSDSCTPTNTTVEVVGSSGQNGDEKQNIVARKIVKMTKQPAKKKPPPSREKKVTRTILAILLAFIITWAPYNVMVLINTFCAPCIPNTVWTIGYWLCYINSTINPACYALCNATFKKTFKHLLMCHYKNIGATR
Assay: accumulation of cAMP at PTX-treated CHO cells expressing M2
Format: cell-based
Design: host or cells: CHO cells, stably transfected
Conditions: for change in accumulation of cAMP: PTX-treated M2 CHO cells, forskolin-stimulated and basal, in words
Protocol: (§1) To exclude the possibility that activation of the non-preferential Gs pathway was obscured by activation of the preferential Gi/o pathway, accumulation of cAMP was measured in CHO cells expressing M2 or M4 receptors where Gi/o G-proteins were inactivated by pertussis toxin (PTX) treatment (FIG. 4).
Cell culture and membrane preparation: Chinese hamster ovary (CHO) cells stably transfected with the genes of individual human variants of muscarinic receptors were purchased from Missouri S&T cDNA Resource Center (Rolla, Mo., USA). Fresh primary cell culture of smooth muscle cells (SMC) from rat aorta prepared as previously described was kindly provided by Dr. Lucie Bačáková. Primary culture of SMCs was grown to confluency in 75 cm^2 flasks in Dulbecco's modified Eagle's medium supplemented with 10% fetal bovine serum. Up to 6-times, 2 million of cells were sub-cultured. […] Cells were grown to confluency in 75 cm^2 flasks in Dulbecco's modified Eagle's medium supplemented with 10% fetal bovine serum and 2 million of cells were subcultured in 100 mm Petri dishes. Medium was supplemented with 5 mM butyrate for the last 24 hours of cultivation to increase receptor expression. When needed, cells were cultivated with pertussis toxin at a final concentration of 25 ng/ml for the 24 hours. Cells were detached by mild trypsinization on day 5 after subculture. Detached cells were washed twice in 50 ml of phosphate-buffered saline and 3 min centrifugation at 250×g. […]
Measurements of the production of cAMP and inositol phosphates: Levels of second messengers cAMP and inositol phosphates were determined in radiochemical chromatography assays as described previously. […] Samples were applied to alumina columns (1.5 g of alumina per column), washed with 2 ml ammonium acetate (pH=7.0) and eluted from columns with 4 ml ammonium acetate and measured by liquid scintillation spectrometry. […] After separation of water and organic phases, 0.6 ml of water phase was applied to Dowex columns (1.5 g of Dowex per column), washed by 20 ml of 60 mM ammonium formate/5 mM sodium borate buffer and eluted from columns with 4 ml of 1M ammonium formate/0.1 formic acid buffer and measured by liquid scintillation spectrometry.
as §1, with “[…]” for “Gs”, “11). […]” for “4).”

SMILES	EC50 in PTX treated cells versus non-treated cells (M2)	change in accumulation of cAMP
C[N+](C)(C)CCOC(N)=O [carbachol, reference compound]	the same	about two-fold increase
C1=CCN(Cc2cccs2)CC1.Cl [Compound 6A, 1-[(thiophen-2-yl)methyl]-1,2,3,6-tetrahydropyridin-1-ium chloride]		did not change cAMP levels
C[N+]1(Cc2cccs2)CC=CCC1.[I-] (stereo not shown) [Compound 7A, 1-methyl-1-[(thiophen-2-yl)methyl]-1,2,3,6-tetrahydropyridin-1-ium iodide]		did not change cAMP levels
